Experimental data: patent US20100183745A1, “Electrochemical Device for Biocide Treatment in Agricultural Applications” (Industrie De Nora S.P.A., priority 2007, published 2010)

Test system: Erwinia amylovora
Experiment: SEM analysis of bacterial colonies on treated pear leaves
Type: in vivo, pear trees of white William variety
Conditions: leaves apparently not affected by the disease; copious bacterial colonies prior to treatment; once a day during 10 days
Source text: The feed vessel was loaded with a solution at neutral pH containing 1 g/l of NaCl and 2.5 g/l of KCl, and the service vessel was loaded with a tap-water stream whose flow-rate was controlled by a downstream UV probe, calibrated so as to detect the concentration of outlet hypochlorous acid by adsorption at 292 nm adjusting the same at a value comprised between 0.10 and 0.15 g/l at sprinkling stage. The outflow of electrolysis cell to the service vessel was adjusted at a flow-rate of 20 l/h.
The device regulated in this way was used for sprinkling the leaves of 50 pear trees of white William variety affected with fire blight, a disease induced by Erwinia amylovora bacterium causing stems, leaves and flowers of the plant to turn brown in localised groups. […] Each treatment was repeated once a day, during 10 subsequent days.

In the case of `O.O.O.O.O.O=S(=O)([O-])[O-].[Cu+2]` [cupric sulphate], the “bacterial colonies on leaves by SEM analysis after the treatment” value is reported as “substantial reduction of the phenomenon, still showed the signs of traces of bacterial colonies”.
